Measurements from paper PMC5271370, “A High-Content Assay Enables the Automated Screening and Identification of Small Molecules with Specific ALDH1A1-Inhibitory Activity” (PLoS ONE, 2017).
Where two headings read alike, the source gives them in different places.

Key:
[1] = system: breast cancer cells that express ALDH1A3; design: method as in PMID 27592281; conditions: flow cytometry, at concentrations >10 μM; cited from earlier work
Human ALDH3A1 = target: T1, Human ALDH3A1 (Homo sapiens, UniProt P30838); experiment: 1,536-well enzymatic assay (NADPH fluorescence), ALDH3A1; assay type: biochemical
T1 construct: made in house
T1 sequence (P30838 1-453): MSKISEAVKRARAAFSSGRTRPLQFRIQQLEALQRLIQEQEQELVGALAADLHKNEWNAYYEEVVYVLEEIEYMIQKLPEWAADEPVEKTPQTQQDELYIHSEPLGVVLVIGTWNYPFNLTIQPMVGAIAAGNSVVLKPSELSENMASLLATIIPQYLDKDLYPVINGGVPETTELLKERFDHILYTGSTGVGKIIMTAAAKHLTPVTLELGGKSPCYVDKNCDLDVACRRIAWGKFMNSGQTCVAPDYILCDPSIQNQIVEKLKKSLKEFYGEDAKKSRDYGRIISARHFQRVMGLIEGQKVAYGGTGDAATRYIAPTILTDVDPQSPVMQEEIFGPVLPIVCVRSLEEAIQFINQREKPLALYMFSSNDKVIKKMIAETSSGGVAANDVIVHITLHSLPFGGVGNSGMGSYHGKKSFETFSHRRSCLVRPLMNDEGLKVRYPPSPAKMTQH
Source text: To validate our optimized assay, we assembled a set of 20 previously reported ALDH inhibitors, with varying degrees of target specificity (Table 1 and S4 Fig). […] Briefly, the assay measures the dehydrogenase activity of recombinant human ALDH1A1, ALDH1A2, ALDH1A3, ALDH2 or ALDH3A1 using NAD(P)^+ and either propionaldehyde or benzaldehyde as substrates. An orthogonal resorufin-based assay format was also run with isolated ALDH1A1 to rule out potential false positives due to intrinsic compound fluorescence.
Human ALDH1A1 and ALDH3A1 were expressed and purified as described elsewhere. Human ALDH2 was purchased from Abcam (ab87415). Human ALDH1A2 and ALDH1A3 were purchased from MyBioSource (MBS1005929; San Diego, CA) and ThermoFisher (11636H07E50), respectively. The inhibitory activity of compounds against ALDHs was measured according to protocols described previously. Briefly, 3 μL of enzyme (final concentrations of 20 nM for ALDH1A1, 50 nM for ALDH1A2, 50 nM for ALDH1A3, 75 nM for ALDH2 and 5 nM for ALDH3A1) in assay buffer (100 mM HEPES pH 7.5 with 0.01% Tween 20) were dispensed into a 1,536-well solid-bottom black plate (Greiner Bio One, Monroe, NC). […] Samples were incubated (room temperature, protected from light) for 15 minutes followed by a 1 μL substrate addition of NAD^+ and Propionaldehyde (final concentrations of 1 mM and 80 μM, respectively) for ALDH1A1, 1A2, 1A3, and ALDH2 or NADP^+ and benzaldehyde (final concentrations of 1 mM and 200 μM, respectively) for ALDH3A1. Plates were centrifuged at 1,000 rpm for 15 seconds, then read in kinetic mode on a ViewLux High-throughput CCD imager (PerkinElmer, Waltham, MA) equipped with standard UV fluorescence optics (340 nm excitation, 450 nm emission) for 5 (ALDH1A1, ALDH1A2, ALDH2, ALDH3A1) or 30 (ALDH1A3) minutes. The change in fluorescence intensity over the 5- or 30-minute reaction period was normalized against no-inhibitor and no-enzyme controls and the resulting percent inhibition data were fitted to a 4-parameter Hill equation. Bay-11 7085 was used as intraplate control. To account for artifacts due to intrinsic compound fluorescence in the above spectrum, compounds were also tested in an orthogonal resorufin assay format with optics of excitation 525 nm/emission 598 nm as described before. The same parameters as the NADH assay were used for the resorufin assay, with the addition of (final) 133 μg/mL diaphorase and 37 μM resazurin to the assay solution. Same controls were used in both formats.

ALDH2 = conditions: reported ALDH target 2; read-out: Reported Biochemical IC50, ALDH2; cited from earlier work
ALDH1A1 = conditions: reported ALDH target 1A1; read-out: Reported Biochemical IC50, ALDH1A1; cited from earlier work
ALDH3A1 = conditions: reported ALDH target 3A1; read-out: Reported Biochemical IC50, ALDH3A1; cited from earlier work
[2] = validation set, 5 nM enzyme, NADP+ and benzaldehyde, read-out: Biochemical IC50 ALDH3A1

IC50 (Human ALDH3A1; [2]) [µM] | Molecule | IC50 (ALDH2) [µM] | IC50 (ALDH1A1) [µM] | also measured
– | CC(C)=CCCC(C)=CC=O (mixture of isomers) [Citral] | – | – | Reduction of ALDEFLUOR fluorescence [1]: significantly reduced ALDEFLUOR fluorescence
5.39 | CCOc1ccc(NCC(=O)Nc2ccc(Cl)cc2C)cc1 [CID 725345] | – | 3.5 | –
21.5 | COc1cccc2cc(C(=O)CC3(O)C(=O)N(Cc4ccccc4)c4ccccc43)c(=O)oc12 (stereo not drawn) [CID 2929292] | – | 0.09 | –
– | O=c1c(-c2ccc(O)cc2)coc2cc(O[C@@H]3O[C@H](CO)[C@@H](O)[C@H](O)[C@H]3O)ccc12 [Daidzin] | 0.29 | – | –
1.91 | CCN(CC)C(=S)SSC(=S)N(CC)CC [Disulfiram] | – | 0.15 | –
– | Cc1cc2c(C(C)C)c(O)c(O)c(C=O)c2c(O)c1-c1c(C)cc2c(C(C)C)c(O)c(O)c(C=O)c2c1O [Gossypol] | – | 75 | IC50 (Human ALDH3A1): 27 µM
– | CC(C)N(C(=O)CCl)c1ccccc1 [Propachlor] | – | – | IC50 (Human ALDH3A1; hits of dual cell-based screen (Table 2), read-out: Biochemical IC50 ALDH3A1): 50.1 µM
2.41 | O=C1Nc2ccccc2C1=O [indoline-2,3-dione] | – | 0.02 | –
17.1 | CVT-10216 | 0.029 | 1.3 | –

Molecule | IC50 (Human ALDH3A1; [2]) [µM] | IC50 (ALDH2) [µM] | IC50 (ALDH1A1) [µM] | also measured
COc1ccc(C(=O)CCN(C)C)cc1F [Aldi-2] | 0.04 | 6.4 | 2.5 | IC50 (ALDH3A1): 1.9 µM
CC(C)(C)c1ccc(S(=O)(=O)/C=C/C#N)cc1 [Bay-11-7085] | 0.54 | 0.034 | 0.074 | IC50 (ALDH3A1): 0.1 µM
CCN(CC)c1ccc(C=O)cc1 [DEAB, 4-N,N-diethylaminobenzaldehyde] | 6.05 | 0.16 | – | Reduction of ALDEFLUOR fluorescence [1]: significantly reduced ALDEFLUOR fluorescence
